Measured values published in US11414424B2, “Cardiac sarcomere inhibitors” (Cytokinetics, Inc., priority 2018, dated 2022).

Test system: bovine cardiac myofibrils
Assay: Myofibril assay: PK/LDH-coupled steady-state ATPase activity of skinned bovine cardiac myofibrils
Format: biochemical
Details: Ca2+ activating to 75% of maximal rate
How it was run: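 Steady-state ATPase of detergent-skinned bovine left-ventricular myofibrils (1 mg/mL), PK/LDH-coupled NADH read at 340 nm, in PIPES/MgCl2 buffer pH 6.8 with 50 μM ATP, 0.6 mM EGTA and CaCl2 set for 50% or 75% activation. Inhibition of activity measured.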

CC(C)N1CC(=O)N(Cc2ccc(Cl)cc2)C2(CCN(c3ccn(C)c(=O)c3)C2)C1=O (centres unmarked) [Compound 80, 6-(4-chlorobenzyl)-9-isopropyl-2-(1-methyl-2-oxo-1,2-dihydropyridin-4-yl)-2,6,9-triazaspiro-[4.5]decane-7,10-dione]
CDMF75 IC15: 1.7 µM

CNc1ccc(N2CC3(C2)C(=O)N(c2ccc(C#N)cc2F)CC(=O)N3Cc2ccc(C(F)(F)F)cc2)cc1 [Compound 538, 3-fluoro-4-(2-(4-(methylamino)phenyl)-6,9-dioxo-5-(4-(trifluoromethyl)benzyl)-2,5,8-triazaspiro[3.5]nonan-8-yl)benzonitrile]
CDMF75 IC15: 0.2 µM

Cc1cc(CN2C(=O)CN(c3ncc(Cl)cc3C)C(=O)C2C2COC2)ccc1F (centres unmarked) [Compound 727, 1-(5-chloro-3-methyl-pyridin-2-yl)-4-(4-fluoro-3-methylbenzyl)-3-(oxetan-3-yl)piperazine-2,5-dione]
CDMF75 IC15: 3.2 µM

C[C@H](c1ccc(Cl)cc1)N1C(=O)CN(c2ncc(Cl)cc2F)C(=O)C12CC2 [Compound 616, (R)-7-(5-chloro-3-fluoro-pyridin-2-yl)-4-(1-(4-chlorophenyl)ethyl)-4,7-diazaspiro[2.5]octane-5,8-dione]
CDMF75 IC15: 11.85 µM

CC1(C2C(=O)N(c3ncc(Cl)cc3F)CC(=O)N2Cc2ccc(Cl)cc2)COC1 (centres unmarked) [Compound 624, 1-(5-chloro-3-fluoropyridin-2-yl)-4-(4-chlorobenzyl)-3-(3-methyloxetan-3-yl)-piperazine-2,5-dione]
CDMF75 IC15: 2.0 µM

CC(C)N1CC(=O)N(Cc2ccc(Cl)cc2)C2(CN(c3ccnnc3)C2)C1=O [Compound 24, 5-(4-chlorobenzyl)-8-isopropyl-2-(pyridazin-4-yl)-2,5,8-triazaspiro[3.5]-nonane-6,9-dione]
CDMF75 IC15: 5.7 µM

CC(=O)NCC1(C)C(=O)N(c2ncc(Cl)cc2F)CC(=O)N1Cc1ccc(C(F)(F)F)cc1 (racemic) [Compound 630, N-((4-(5-chloro-3-fluoropyridin-2-yl)-2-methyl-3,6-dioxo-1-(4-(trifluoromethyl)benzyl)piperazin-2-yl)methyl)acetamide]
CDMF75 IC15: 18.7 µM

O=C1CN(c2ncc(Cl)cc2F)C(=O)C2(COC2)N1Cc1ccc(Cl)cc1 [Compound 575, 8-(5-chloro-3-fluoropyridin-2-yl)-5-(4-chlorobenzyl)-2-oxa-5,8-diazaspiro[3.5]nonane-6,9-dione]
CDMF75 IC15: 1.5 µM

CCOC(=O)C1CC2(C1)C(=O)N(c1ncc(Cl)cc1F)CC(=O)N2Cc1ccc(C(F)(F)F)cc1 (single isomer, unassigned) [Compound 859A, ethyl 8-(5-chloro-3-fluoropyridin-2-yl)-6,9-dioxo-5-(4-(trifluoromethyl)benzyl)-5,8-diazaspiro[3.5]nonane-2-carboxylate]
CDMF75 IC15: 0.6 µM

CC(C)N1CC(=O)N(Cc2ccc(Cl)cc2)C2(CN(c3ccc(C(F)(F)F)nn3)C2)C1=O [Compound 53, 5-(4-chlorobenzyl)-8-isopropyl-2-(6-(trifluoromethyl)pyridazin-3-yl)-2,5,8-triazaspiro-[3.5]nonane-6,9-dione]
CDMF75 IC15: 14.7 µM

O=C1C(C2COC2)N(Cc2ccc(C(F)(F)F)cc2)C(=O)CN1c1ncc(OC(F)F)cc1F (centres unmarked) [Compound 711, 1-(5-(difluoromethoxy)-3-fluoropyridin-2-yl)-3-(oxetan-3-yl)-4-(4-(trifluoromethyl)benzyl)-piperazine-2,5-dione]
CDMF75 IC15: 24.6 µM

CNC(=O)N1CC2(C1)C(=O)N(Cc1ccc(C#N)cc1)CC(=O)N2Cc1ccc(C(F)(F)F)cc1 [Compound 336, 8-(4-cyanobenzyl)-N-methyl-6,9-dioxo-5-(4-(trifluoromethyl)benzyl)-2,5,8-triazaspiro[3.5]nonane-2-carboxamide]
CDMF75 IC15: 1.1 µM

CN(C)C(=O)N1CC2(C1)C(=O)N(c1ccc(C#N)c(F)c1)CC(=O)N2Cc1ccc(C(F)(F)F)cc1 [Compound 201, 8-(4-cyano-3-fluorophenyl)-N,N-dimethyl-6,9-dioxo-5-(4-(trifluoromethyl)benzyl)-2,5,8-triazaspiro[3.5]nonane-2-carboxamide]
CDMF75 IC15: 5.1 µM

CC(=O)N1CC2(C1)C(=O)N(C1CCC(C(F)F)CC1)CC(=O)N2Cc1ccc(C(F)(F)F)cc1 (centres unmarked) [Compound 324, 2-acetyl-8-(4-(difluoro-methyl)cyclohexyl)-5-(4-(trifluoromethyl)benzyl)-2,5,8-triazaspiro[3.5]-nonane-6,9-dione]
CDMF75 IC15: 11.5 µM

CC(C)N1CC(=O)N(Cc2ccc(Cl)c(Cl)c2)C2(CCN(c3ccc(C#N)cn3)C2)C1=O (centres unmarked) [Compound 90, 6-(6-(3,4-dichlorobenzyl)-9-isopropyl-7,10-dioxo-2,6,9-triazaspiro[4.5]-decan-2-yl)nicotinonitrile]
CDMF75 IC15: 1.7 µM

CC(C)N1CC(=O)N(Cc2ccc(Cl)cc2)C2(CN(c3cccc(Cl)c3)C2)C1=O [Compound 5, 5-(4-chlorobenzyl)-2-(3-chlorophenyl)-8-isopropyl-2,5,8-triazaspiro[3.5]-nonane-6,9-dione]
CDMF75 IC15: 1.9 µM

CNC(=O)N1CC2(C1)C(=O)N(c1ccc(OC)nc1)CC(=O)N2Cc1ccc(C(F)(F)F)cc1 [Compound 154, 8-(6-methoxypyridin-3-yl)-N-methyl-6,9-dioxo-5-(4-(trifluoromethyl)benzyl)-2,5,8-triazaspiro[3.5]-nonane-2-carboxamide]
CDMF75 IC15: 19.8 µM

CNC(=O)N1CC2(C1)C(=O)N(c1ccc(OC)cc1)CC(=O)N2Cc1ccc(C(F)(F)F)cc1 [Compound 145, 8-(4-methoxyphenyl)-N-methyl-6,9-dioxo-5-(4-(trifluoromethyl)benzyl)-2,5,8-triazaspiro[3.5]-nonane-2-carboxamide]
CDMF75 IC15: 3.8 µM

CC(C)N1C(=O)C2(CN(c3ccc(F)cc3)C2)N(Cc2ccc(Cl)cc2)C(=O)C1C (centres unmarked) [Compound 20, 5-(4-chlorobenzyl)-2-(4-fluorophenyl)-8-isopropyl-7-methyl-2,5,8-triazaspiro[3.5]nonane-6,9-dione]
CDMF75 IC15: 7.5 µM

CC(C)N1CC(=O)N(Cc2ccc(Cl)cc2)C2(CCN(c3ccc(C(N)=O)cn3)C2)C1=O (centres unmarked) [Compound 98, 6-(6-(4-chlorobenzyl)-9-isopropyl-7,10-dioxo-2,6,9-triazaspiro[4.5]decan-2-yl)nicotinamide]
CDMF75 IC15: 2.4 µM

CC(=O)N1CC2(C1)C(=O)N(c1ccc(-c3noc(C)n3)cc1F)CC(=O)N2Cc1ccc(C(F)(F)F)cc1 [Compound 702]
CDMF75 IC15: 25.5 µM

Cc1cc(Cl)cnc1N1CC(=O)N(Cc2ccc(Cl)cc2)C(CC2COC2)C1=O (centres unmarked) [Compound 655, 1-(5-chloro-3-methylpyridin-2-yl)-4-(4-chlorobenzyl)-3-(oxetan-3-ylmethyl)-piperazine-2,5-dione]
CDMF75 IC15: 7.0 µM

N#Cc1ccc(N2CC(=O)N(Cc3ccc(C(F)(F)F)cc3)C3(CN(c4ccc(C#N)cn4)C3)C2=O)cc1 [Compound 192, 6-(8-(4-cyanophenyl)-6,9-dioxo-5-(4-(trifluoromethyl)benzyl)-2,5,8-triazaspiro[3.5]nonan-2-yl)nicotinonitrile]
CDMF75 IC15: 0.6 µM

N#Cc1cnc(N2CC(=O)N(Cc3ccc(C(F)(F)F)cc3)C(C3COC3)C2=O)c(F)c1 (centres unmarked) [Compound 736, 5-fluoro-6-(3-(oxetan-3-yl)-2,5-dioxo-4-(4-(trifluoromethyl)benzyl)-piperazin-1-yl)nicotinonitrile]
CDMF75 IC15: 2.0 µM

O=C1CN(c2ccc(Cl)cc2F)C(=O)C2(CCC2)N1Cc1ccc(C(F)(F)F)cc1 [Compound 272, 8-(4-chloro-2-fluorophenyl)-5-(4-(trifluoromethyl)-benzyl)-5,8-diazaspiro-[3.5]nonane-6,9-dione]
CDMF75 IC15: 0.5 µM

CC1(C)C(=O)N(c2ccc(C#N)cc2F)CC(=O)N1Cc1ccc(C(F)(F)F)cc1 [Compound 279, 4-(3,3-dimethyl-2,5-dioxo-4-(4-(trifluoromethyl)-benzyl)piperazin-1-yl)-3-fluorobenzonitrile]
CDMF75 IC15: 1.2 µM

CC(C)N1CC(=O)N(Cc2ccc(Cl)cc2)C2(CCN(C(N)=O)C2)C1=O (centres unmarked) [Compound 120, 6-(4-chlorobenzyl)-9-isopropyl-7,10-dioxo-2,6,9-triazaspiro[4.5]decane-2-carboxamide]
CDMF75 IC15: 18.3 µM

O=C1CN(c2ncc(Cl)cc2F)C(=O)C2(CC(O)C2)N1Cc1ccc(F)cc1 (centres unmarked) [Compound 764, 8-(5-chloro-3-fluoropyridin-2-yl)-5-(4-fluorobenzyl)-2-hydroxy-5,8-diazaspiro-[3.5]nonane-6,9-dione]
CDMF75 IC15: 1.6 µM

O=C1C(C2COC2)N(Cc2ccc(C(F)(F)F)c(F)c2)C(=O)CN1c1ncc(Cl)cc1F (centres unmarked) [Compound 649, 1-(5-chloro-3-fluoropyridin-2-yl)-4-(3-fluoro-4-(trifluoromethyl)benzyl)-3-(oxetan-3-yl)piperazine-2,5-dione]
CDMF75 IC15: 2.9 µM

CC(C)N1CC(=O)N(Cc2ccc(C(F)(F)F)cc2)C2(CCN(C(=O)Nc3ccccc3)C2)C1=O (centres unmarked) [Compound 109, 9-isopropyl-7,10-dioxo-N-phenyl-6-(4-(trifluoro-methyl)benzyl)-2,6,9-triazaspiro[4.5]decane-2-carboxamide]
CDMF75 IC15: 8.3 µM

O=C1C(CO)N(Cc2ccc(C(F)(F)F)cc2)C(=O)CN1c1ncc(Cl)cc1F (single isomer, unassigned) [Compound 857B, 1-(5-chloro-3-fluoropyridin-2-yl)-3-(hydroxymethyl)-4-(4-(trifluoromethyl)benzyl)piperazine-2,5-dione]
CDMF75 IC15: >39 µM

CNC(=O)N1CC2(C1)C(=O)N(c1ncc(Cl)cc1F)CC(=O)N2[C@@H](C)c1ccc(Cl)cc1 [Compound 563, (S)-8-(5-chloro-3-fluoro-pyridin-2-yl)-5-(1-(4-chlorophenyl)ethyl)-N-methyl-6,9-dioxo-2,5,8-triazaspiro[3.5]nonane-2-carboxamide]
CDMF75 IC15: 2.2 µM
